Test: xn = mol fraction of the nth substance listed
Conditions: 101.3 kPa, Liquid, Vibrating tube method

COCCOCCOC [2,5,8-trioxanonane] + ClCCCl
mass density [kg/m3]
Conditions | 308.15 K | 313.15 K | 318.15 K | 323.15 K | 328.15 K | 333.15 K
x2 = 0.0252 | – | 928.2 | 923.14 | 918.07 | 912.99 | 907.88
x2 = 0.0508 | – | 932.81 | 927.72 | 922.62 | 917.5 | 912.36
x2 = 0.0751 | – | 937.26 | 932.15 | 927.01 | 921.85 | 916.68
x2 = 0.1 | – | 941.89 | 936.74 | 931.58 | 926.39 | 921.19
x2 = 0.1502 | – | 951.65 | 946.43 | 941.2 | 935.95 | 930.67
x2 = 0.1999 | – | 961.71 | 956.42 | 951.12 | 945.79 | 940.45
x2 = 0.25 | – | 972.4 | 967.04 | 961.66 | 956.26 | 950.83
x2 = 0.3002 | – | 983.61 | 978.16 | 972.68 | 967.18 | 961.67
x2 = 0.3501 | – | 995.21 | 989.69 | 984.14 | 978.56 | 972.96
x2 = 0.4 | 1013.05 | 1007.46 | 1001.83 | 996.19 | 990.53 | 984.84
x2 = 0.45 | 1025.99 | 1020.29 | 1014.56 | 1008.81 | 1003.05 | 997.27
x2 = 0.5003 | 1039.78 | 1033.98 | 1028.16 | 1022.31 | 1016.44 | 1010.54
x2 = 0.5499 | 1054.03 | 1048.12 | 1042.19 | 1036.25 | 1030.26 | 1024.25
x2 = 0.5999 | 1069.2 | 1063.17 | 1057.13 | 1051.05 | 1044.95 | 1038.81
x2 = 0.6501 | 1085.36 | 1079.21 | 1073.04 | 1066.84 | 1060.6 | 1054.34
x2 = 0.7 | 1102.36 | 1096.08 | 1089.77 | 1083.44 | 1077.08 | 1070.67
x2 = 0.75 | 1120.21 | 1113.78 | 1107.32 | 1100.83 | 1094.32 | 1087.77
x2 = 0.8 | 1139.52 | 1132.93 | 1126.31 | 1119.65 | 1112.98 | 1106.28
x2 = 0.8499 | 1159.94 | 1153.19 | 1146.4 | 1139.57 | 1132.71 | 1125.84
x2 = 0.9 | 1181.94 | 1175 | 1168.02 | 1160.99 | 1153.95 | 1146.89
x2 = 0.925 | 1193.47 | 1186.42 | 1179.34 | 1172.21 | 1165.08 | 1157.9
x2 = 0.9494 | 1205.37 | 1198.22 | 1191.02 | 1183.78 | 1176.54 | 1169.26
x2 = 0.975 | 1218.05 | 1210.78 | – | – | – | –

— the NIST ThermoML archive (doi:10.1021/je101361u)
